According to patent US9899125B2, “Medium- or high-voltage electrical appliance having a low environmental impact and hybrid insulation” (Alstom Technology Ltd., priority 2012, dated 2018):

Experiments:
[1] = Toxicity: LC50 (lethal concentration, 50%); assay type: in vivo; conditions: pure heptafluoroisobutyronitrile
[2] = Toxicity for humans and animals (statement)
Text: Currently, the most widely-used gas in that type of equipment is sulfur hexafluoride (SF6). That gas presents dielectric strength that is relatively high, good thermal conductivity, and low dielectric losses. It is chemically inert, non-toxic for humans and animals and, after being dissociated by an electric arc, it recombines quickly and almost completely. In addition, it is non-flammable and its price is still moderate.

[3] = prior art statement; cited from earlier work

| SMILES | LC50 (lethal concentration, 50%) [1] | toxicity for humans [2] | toxicity for humans and animals [3] |
| --- | --- | --- | --- |
| N#CC(F)(C(F)(F)F)C(F)(F)F [Heptafluoroisobutyronitrile, 2,3,3,3-tetrafluoro-2-trifluoromethyl propanenitrile] | greater than 15000 ppm | no specific toxicity |  |
| FS(F)(F)(F)(F)F [SF6, sulfur hexafluoride] |  |  | non-toxic |
